{
  "source": "paper PMC12118186",
  "about": "(2023)",
  "key": {"[1]": {"system": "SA1 (DNA, aptamer) ACGACCTGACTTCCCATGGGATCTTCACTTAAATGGTCGT", "assay": "ThT fluorescence displacement titration", "settings": "100 mM Na+, pH 6.0, 1 μM DNA; for binding: 1 mM Mg2+, MES, 2 μM thioflavin T, 30 μM compound"}, "[2]": {"system": "SA1 (DNA, aptamer) ACGACCTGACTTCCCATGGGATCTTCACTTAAATGGTCGT", "assay": "fluorescence enhancement", "settings": "100 mM Na+, 1 mM Mg2+ (Figure 2 legend; methods: 5 mM); 10 mM MES, pH 6.0; 1 μM DNA, 2 μM thioflavin T; described as nonspecific"}, "[3]": {"system": "SA1 (DNA, aptamer) ACGACCTGACTTCCCATGGGATCTTCACTTAAATGGTCGT", "assay": "ITC", "settings": "100 mM Na+, 5 mM Mg2+; 10 mM MES, pH 6.0, 25°C; one-site fit; 20 μM aptamer"}, "[4]": {"system": "SA2 (DNA, aptamer) ACGACGGGGGACCGGAAACAAGTGCAAAACGCTTCGTCGT", "assay": "ThT fluorescence displacement titration", "settings": "100 mM Na+, 1 mM Mg2+ (Figure 2 legend; methods: 5 mM); 10 mM MES, pH 6.0; apparent; tracer 2 μM thioflavin T; signal change only about 20%"}},
  "data": [
    {"smiles": "CC(=O)Oc1ccccc1C(=O)O", "values": [
      {"measurement": "binding", "setting": "[1]", "result": "no"}
    ]},
    {"smiles": "Cc1ccc2c(c1)sc(-c1ccc(N(C)C)cc1)[n+]2C", "values": [
      {"measurement": "binding", "setting": "[2]", "result": "yes"}
    ]},
    {"smiles": "O=C(O)c1ccc(O)cc1", "values": [
      {"measurement": "binding", "setting": "[1]", "result": "weak"}
    ]},
    {"smiles": "O=C(O)c1ccccc1O", "values": [
      {"measurement": "Kd", "setting": "[3]", "result": "26.7 ± 5.6", "unit": "µM"},
      {"measurement": "Kd", "setting": "[1]; 1 mM Mg2+ (Figure 2 legend; methods: 5 mM), 10 mM MES, apparent, tracer 2 μM thioflavin T", "result": 5.8, "unit": "µM"},
      {"measurement": "Kd", "setting": "[4]", "result": 11, "unit": "µM"}
    ]}
  ]
}
